Measured values published in PubChem BioAssay AID1918944 (Molecular Pharmacology Branch, DTP, NCI, 2023).

Tested on: 786-0 complex spheroid viability
Assay: Anticancer human tumor 786-0 cell line growth inhibition;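 further: spheroids exposed to agents for seven days before readout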
Settings: for IC50: curve of first compound; for viability, T/C: stronger effect = lower value
Outline: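 Complex spheroids of tumor cells with HUVEC and human MSCs, exposed to iadademstat combined with other agents. Each agent tested in half-log steps from near clinical Cmax (else 10 microM top), DMSO ≤0.25%.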

[1] = second compound 0.1 µM, first compound 0.00949 µM
[2] = second compound 0.1 µM, first compound 0.03 µM
[3] = second compound 0.1 µM, first compound 0.0949 µM
[4] = second compound 0.1 µM, first compound 0.3 µM
[5] = second compound 0.316 µM, first compound 0.00949 µM
[6] = second compound 0.316 µM, first compound 0.03 µM
[7] = second compound 0.316 µM, first compound 0.0949 µM
[8] = second compound 0.316 µM, first compound 0.3 µM
[9] = second compound 1 µM, first compound 0.00949 µM
[10] = second compound 1 µM, first compound 0.03 µM
[11] = second compound 1 µM, first compound 0.0949 µM
[12] = second compound 1 µM, first compound 0.3 µM
[13] = second compound 3.16 µM, first compound 0.00949 µM
[14] = second compound 3.16 µM, first compound 0.03 µM
[15] = second compound 3.16 µM, first compound 0.0949 µM
[16] = second compound 3.16 µM, first compound 0.3 µM
[17] = second compound 10 µM, first compound 0.00949 µM
[18] = second compound 10 µM, first compound 0.03 µM
[19] = second compound 10 µM, first compound 0.0949 µM
[20] = second compound 10 µM, first compound 0.3 µM
[21] = second compound 0.1 µM, first compound 0.0316 µM
[22] = second compound 0.1 µM, first compound 0.1 µM
[23] = second compound 0.1 µM, first compound 0.316 µM
[24] = second compound 0.1 µM, first compound 1 µM
[25] = second compound 0.1 µM, first compound 3.16 µM
[26] = second compound 0.1 µM, first compound 10 µM
[27] = second compound 0.316 µM, first compound 0.0316 µM
[28] = second compound 0.316 µM, first compound 0.1 µM
[29] = second compound 0.316 µM, first compound 0.316 µM
[30] = second compound 0.316 µM, first compound 1 µM
[31] = second compound 0.316 µM, first compound 3.16 µM
[32] = second compound 0.316 µM, first compound 10 µM
[33] = second compound 1 µM, first compound 0.0316 µM
[34] = second compound 1 µM, first compound 0.1 µM
[35] = second compound 1 µM, first compound 0.316 µM
[36] = second compound 1 µM, first compound 1 µM
[37] = second compound 1 µM, first compound 3.16 µM
[38] = second compound 1 µM, first compound 10 µM
[39] = second compound 3.16 µM, first compound 0.0316 µM
[40] = second compound 3.16 µM, first compound 0.1 µM
[41] = second compound 3.16 µM, first compound 0.316 µM
[42] = second compound 3.16 µM, first compound 1 µM
[43] = second compound 3.16 µM, first compound 3.16 µM
[44] = second compound 3.16 µM, first compound 10 µM
[45] = second compound 10 µM, first compound 0.0316 µM
[46] = second compound 10 µM, first compound 0.1 µM
[47] = second compound 10 µM, first compound 0.316 µM
[48] = second compound 10 µM, first compound 1 µM
[49] = second compound 10 µM, first compound 3.16 µM
[50] = second compound 10 µM, first compound 10 µM

With CCc1c2c(nc3ccc(O)cc13)-c1cc3c(c(=O)n1C2)COC(=O)[C@]3(O)CC + NC1CCC(NC2CC2c2ccccc2)CC1 the IC50 (second compound 0.1 µM) was less than 0.000949 µM, the IC50 (second compound 0.316 µM) was less than 0.000949 µM and the IC50 (second compound 1 µM) was less than 0.000949 µM. The IC50 (second compound 3.16 µM) was less than 0.000949 µM, the IC50 (second compound 10 µM) was less than 0.000949 µM and the viability, T/C (second compound 0.1 µM, first compound 0.000949 µM) was 5.59%. It also gave a viability, T/C (second compound 0.1 µM, first compound 0.003 µM) of 3.78%, a viability, T/C [1] of 4.66% and a viability, T/C [2] of 5.87%. The viability, T/C [3] was 7.32%, the viability, T/C [4] was 5.08% and the viability, T/C (second compound 0.316 µM, first compound 0.000949 µM) was 4.71%. It also gave a viability, T/C (second compound 0.316 µM, first compound 0.003 µM) of 5.02%, a viability, T/C [5] of 5.44% and a viability, T/C [6] of 5.35%. For the same compound, the viability, T/C [7] was 6.11%, the viability, T/C [8] was 6.29% and the viability, T/C (second compound 1 µM, first compound 0.000949 µM) was 4.87%. It also gave a viability, T/C (second compound 1 µM, first compound 0.003 µM) of 4.67%, a viability, T/C [9] of 4.31% and a viability, T/C [10] of 6.32%. For the same compound, the viability, T/C [11] was 7.36%, the viability, T/C [12] was 5.93% and the viability, T/C (second compound 3.16 µM, first compound 0.000949 µM) was 4.72%. For the same compound, the viability, T/C (second compound 3.16 µM, first compound 0.003 µM) was 4.8%, the viability, T/C [13] was 5.76% and the viability, T/C [14] was 6.79%. For the same compound, the viability, T/C [15] was 7.9%, the viability, T/C [16] was 6.54% and the viability, T/C (second compound 10 µM, first compound 0.000949 µM) was 3.83%. It also gave a viability, T/C (second compound 10 µM, first compound 0.003 µM) of 4.29%, a viability, T/C [17] of 6.51% and a viability, T/C [18] of 9.43%. It also gave a viability, T/C [19] of 10.1% and a viability, T/C [20] of 7.07%.
Work on CC1(C)CCC(CN2CCN(c3ccc(C(=O)NS(=O)(=O)c4ccc(NCC5CCOCC5)c([N+](=O)[O-])c4)c(Oc4cnc5[nH]ccc5c4)c3)CC2)=C(c2ccc(Cl)cc2)C1 + NC1CCC(NC2CC2c2ccccc2)CC1 yielded an IC50 (second compound 0.1 µM) greater than 10 µM, an IC50 (second compound 0.316 µM) greater than 10 µM and an IC50 (second compound 1 µM) greater than 10 µM. For the same compound, the IC50 (second compound 3.16 µM) was 9.29 µM, the IC50 (second compound 10 µM) was 6.26 µM and the viability, T/C [21] was 113%. For the same compound, the viability, T/C [22] was 117%, the viability, T/C [23] was 110% and the viability, T/C [24] was 116%. The viability, T/C [25] was 103%, the viability, T/C [26] was 68.1% and the viability, T/C [27] was 117%. The viability, T/C [28] was 121%, the viability, T/C [29] was 120% and the viability, T/C [30] was 120%. For the same compound, the viability, T/C [31] was 106%, the viability, T/C [32] was 67.1% and the viability, T/C [33] was 116%. The viability, T/C [34] was 116%, the viability, T/C [35] was 118% and the viability, T/C [36] was 108%. The viability, T/C [37] was 104%, the viability, T/C [38] was 58.3% and the viability, T/C [39] was 110%. For the same compound, the viability, T/C [40] was 109%, the viability, T/C [41] was 107% and the viability, T/C [42] was 96%. The viability, T/C [43] was 85.3%, the viability, T/C [44] was 47.4% and the viability, T/C [45] was 90.2%. For the same compound, the viability, T/C [46] was 94.6%, the viability, T/C [47] was 89.3% and the viability, T/C [48] was 74.1%. It also gave a viability, T/C [49] of 63.2% and a viability, T/C [50] of 41.8%.
Work on CCN(c1cc(-c2ccc(CN3CCOCC3)cc2)cc(C(=O)NCc2c(C)cc(C)[nH]c2=O)c1C)C1CCOCC1 + NC1CCC(NC2CC2c2ccccc2)CC1 yielded an IC50 (second compound 0.1 µM) greater than 3 µM, an IC50 (second compound 0.316 µM) greater than 3 µM and an IC50 (second compound 1 µM) greater than 3 µM. For the same compound, the IC50 (second compound 3.16 µM) was greater than 3 µM, the IC50 (second compound 10 µM) was greater than 3 µM and the viability, T/C [1] was 121%. The viability, T/C [2] was 122%, the viability, T/C [3] was 117% and the viability, T/C [4] was 114%. It also gave a viability, T/C (second compound 0.1 µM, first compound 0.949 µM) of 114%, a viability, T/C (second compound 0.1 µM, first compound 3 µM) of 111% and a viability, T/C [5] of 119%. The viability, T/C [6] was 118%, the viability, T/C [7] was 114% and the viability, T/C [8] was 116%. The viability, T/C (second compound 0.316 µM, first compound 0.949 µM) was 109%, the viability, T/C (second compound 0.316 µM, first compound 3 µM) was 106% and the viability, T/C [9] was 116%. It also gave a viability, T/C [10] of 114%, a viability, T/C [11] of 115% and a viability, T/C [12] of 109%. For the same compound, the viability, T/C (second compound 1 µM, first compound 0.949 µM) was 105%, the viability, T/C (second compound 1 µM, first compound 3 µM) was 106% and the viability, T/C [13] was 111%. The viability, T/C [14] was 105%, the viability, T/C [15] was 109% and the viability, T/C [16] was 110%. The viability, T/C (second compound 3.16 µM, first compound 0.949 µM) was 97.2%, the viability, T/C (second compound 3.16 µM, first compound 3 µM) was 105% and the viability, T/C [17] was 87.2%. It also gave a viability, T/C [18] of 90.2%, a viability, T/C [19] of 91.2% and a viability, T/C [20] of 96.5%. It also gave a viability, T/C (second compound 10 µM, first compound 0.949 µM) of 88.3% and a viability, T/C (second compound 10 µM, first compound 3 µM) of 89%.
CC1(C)CCC(CN2CCN(c3ccc(C(=O)NS(=O)(=O)c4ccc(NCC5CCOCC5)c([N+](=O)[O-])c4)c(Oc4cnc5[nH]ccc5c4)c3)CC2)=C(c2ccc(Cl)cc2)C1 + NC1CC1c1ccc(-c2cccc(O)c2)cc1 gave an IC50 (second compound 0.1 µM) greater than 10 µM, an IC50 (second compound 0.316 µM) greater than 10 µM and an IC50 (second compound 1 µM) greater than 10 µM. The IC50 (second compound 3.16 µM) was greater than 10 µM, the IC50 (second compound 10 µM) was 8.09 µM and the viability, T/C [21] was 119%. For the same compound, the viability, T/C [22] was 114%, the viability, T/C [23] was 115% and the viability, T/C [24] was 110%. For the same compound, the viability, T/C [25] was 103%, the viability, T/C [26] was 66.6% and the viability, T/C [27] was 105%. The viability, T/C [28] was 114%, the viability, T/C [29] was 106% and the viability, T/C [30] was 111%. The viability, T/C [31] was 100%, the viability, T/C [32] was 68.6% and the viability, T/C [33] was 113%. The viability, T/C [34] was 114%, the viability, T/C [35] was 106% and the viability, T/C [36] was 106%. It also gave a viability, T/C [37] of 96.3%, a viability, T/C [38] of 60.9% and a viability, T/C [39] of 105%. It also gave a viability, T/C [40] of 110%, a viability, T/C [41] of 106% and a viability, T/C [42] of 101%. It also gave a viability, T/C [43] of 93.3%, a viability, T/C [44] of 57.3% and a viability, T/C [45] of 102%. For the same compound, the viability, T/C [46] was 95.7%, the viability, T/C [47] was 103% and the viability, T/C [48] was 90.8%. It also gave a viability, T/C [49] of 81.6% and a viability, T/C [50] of 42.6%.
